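Briefly, cells in 96-well plates were exposed to five compound concentrations for 48 h, and endpoints were estimated by linear interpolation. GI50 is the concentration that inhibits growth by half.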 Activity calls are given as the source filed them. No stated cut-off is given here; in the data, active = GI50 up to about 1.1 µM and inactive = higher.
What was measured:
Assay in all cases: NCI-60 cell line screen, 48 h
[1] = system: A549
[2] = system: CAKI-1
[3] = system: COLO 205
[4] = system: DU-145
[5] = system: HCC 2998
[6] = system: HCT-116
[7] = system: HT-29
[8] = system: MCF7
[9] = system: MDA-MB-231
[10] = system: MDA-MB-435
[11] = system: Malme-3M
[12] = system: NCI-H522
[13] = system: OVCAR-3
[14] = system: RXF 393
[15] = system: SF-268
[16] = system: SF-295
[17] = system: SK-MEL-28
[18] = system: SR
[19] = system: TK-10
[20] = system: Hs-578T

| Compound | GI50 [1] | GI50 [2] | GI50 [3] | GI50 [4] | GI50 [5] | GI50 [6] | GI50 [7] | GI50 [8] | GI50 [9] | GI50 [10] | GI50 [11] | GI50 [12] | GI50 [13] | GI50 [14] | GI50 [15] | GI50 [16] | GI50 [17] | GI50 [18] | GI50 [19] | GI50 [20] |
| --- | --- | --- | --- | --- | --- | --- | --- | --- | --- | --- | --- | --- | --- | --- | --- | --- | --- | --- | --- | --- |
| CC1(C)COC(c2ccccc2-c2ccccc2)=N1 | 59.2 µM (inactive) | 81.3 µM (inactive) | > 100 µM (inactive) | > 100 µM (inactive) | > 100 µM (inactive) | > 100 µM (inactive) | 83 µM (inactive) | > 100 µM (inactive) | 56.6 µM (inactive) | > 100 µM (inactive) | > 100 µM (inactive) | 38.7 µM (inactive) | > 100 µM (inactive) | 70.5 µM (inactive) | > 100 µM (inactive) | 53.7 µM (inactive) | > 100 µM (inactive) | > 100 µM (inactive) |  |  |
| CCCCCCCCC(C)CCCCCCCCC(=O)OCC(COP(=O)([O-])OCC[N+](C)(C)C)OC(=O)CCCCCCCCC(C)CCCCCCCC (stereo unspecified) | > 100 µM (inactive) | > 100 µM (inactive) | > 100 µM (inactive) |  | > 100 µM (inactive) | > 100 µM (inactive) | > 100 µM (inactive) |  |  |  | > 100 µM (inactive) | > 100 µM (inactive) | > 100 µM (inactive) | > 100 µM (inactive) | > 100 µM (inactive) | > 100 µM (inactive) | > 100 µM (inactive) | > 100 µM (inactive) | > 100 µM (inactive) |  |
| Cc1ccc2[nH]c(=O)c(C(C#N)c3ccccc3)nc2c1 (stereo unspecified) | 35.5 µM (inactive) | 34.6 µM (inactive) | 27 µM (inactive) |  | 28.2 µM (inactive) | 33.7 µM (inactive) | 32.8 µM (inactive) |  |  |  | 45.2 µM (inactive) | 32.7 µM (inactive) | 23.6 µM (inactive) | 23 µM (inactive) | 32.6 µM (inactive) | 30.4 µM (inactive) | 60.4 µM (inactive) | 71.3 µM (inactive) | > 100 µM (inactive) |  |
| CC(C)(C)C1=C(Br)C(OC(=O)C(F)(F)F)(C(C)(C)C)OP1(=O)c1ccccc1 (stereo unspecified) | 25.6 µM (inactive) | 0.0643 µM (active) | 18.5 µM (inactive) | 45.2 µM (inactive) | 38.6 µM (inactive) | 33 µM (inactive) | 37 µM (inactive) | 42.7 µM (inactive) |  | 53.3 µM (inactive) | 65 µM (inactive) | 42.2 µM (inactive) | 31.9 µM (inactive) |  | 61.4 µM (inactive) | 35.3 µM (inactive) | > 100 µM (inactive) |  | 79.3 µM (inactive) | 23.7 µM (inactive) |
| COc1ccc(C2C(Cl)C(=O)N2NC(=O)c2ccc(N)cc2)cc1OC (stereo unspecified) | 15.4 µM (inactive) | 2.92 µM (inactive) | 11.9 µM (inactive) | 16.4 µM (inactive) | 8.11 µM (inactive) | 1.5 µM (inactive) | 2.53 µM (inactive) | 9.84 µM (inactive) | 14.7 µM (inactive) | 5.87 µM (inactive) | 12.5 µM (inactive) | 1.98 µM (inactive) | 5.85 µM (inactive) | 15.3 µM (inactive) | 10.9 µM (inactive) | 7.16 µM (inactive) | 2.48 µM (inactive) | 2.2 µM (inactive) | 17 µM (inactive) |  |
| CO/N=C(\C(=O)Nc1cncs1)c1csc(NC(c2ccccc2)(c2ccccc2)c2ccccc2)n1 | 3.84 µM (inactive) | > 10 µM (inactive) | > 10 µM (inactive) | > 10 µM (inactive) | 8.53 µM (inactive) | 5 µM (inactive) | 4.63 µM (inactive) | 6.08 µM (inactive) |  |  | > 10 µM (inactive) | > 10 µM (inactive) | > 10 µM (inactive) | 9.55 µM (inactive) | 9.79 µM (inactive) | 7.21 µM (inactive) | > 10 µM (inactive) | 4.12 µM (inactive) | > 10 µM (inactive) | > 10 µM (inactive) |
| Cc1ccc(/C=C2/NC(=S)SC2=O)cc1 | 36.7 µM (inactive) | 19.6 µM (inactive) | 35.7 µM (inactive) | 58.5 µM (inactive) | 31.2 µM (inactive) | 30.5 µM (inactive) | 28.6 µM (inactive) | 39.6 µM (inactive) | 24.4 µM (inactive) | 36.5 µM (inactive) |  |  | 43.7 µM (inactive) |  |  | 27.6 µM (inactive) | > 100 µM (inactive) |  | 18.1 µM (inactive) |  |
| Cc1ccc(-c2cc(-c3ccccc3)nc(N)n2)c(O)c1 | > 90.4 µM (inactive) | > 74.6 µM (inactive) | > 100 µM (inactive) | > 79.4 µM (inactive) | > 100 µM (inactive) | 5.48 µM (inactive) | > 100 µM (inactive) | 58.1 µM (inactive) | > 100 µM (inactive) | 2.86 µM (inactive) | > 100 µM (inactive) | 5.4 µM (inactive) | > 59.2 µM (inactive) | > 100 µM (inactive) | > 100 µM (inactive) | 39.4 µM (inactive) | > 100 µM (inactive) | 0.227 µM (active) | > 60.1 µM (inactive) |  |
| O=C(O)C(=O)/C=C\c1ccc(Cl)cc1 | > 100 µM (inactive) | > 100 µM (inactive) | > 100 µM (inactive) |  | > 100 µM (inactive) | > 100 µM (inactive) | > 100 µM (inactive) |  |  |  | > 100 µM (inactive) | > 100 µM (inactive) | > 100 µM (inactive) | > 100 µM (inactive) | > 100 µM (inactive) | > 100 µM (inactive) | > 100 µM (inactive) | 51.6 µM (inactive) | > 100 µM (inactive) |  |
| COc1cc2c(cc1C)NC(=O)/C2=C\c1cccnc1 | 21.3 µM (inactive) | 15.4 µM (inactive) | 16.5 µM (inactive) | 17.1 µM (inactive) | 10 µM (inactive) | 15.1 µM (inactive) | 15.5 µM (inactive) | 11.7 µM (inactive) |  | 13.7 µM (inactive) | 15 µM (inactive) | 20.4 µM (inactive) | 13.7 µM (inactive) | 17.4 µM (inactive) | 19.4 µM (inactive) | 14.7 µM (inactive) | 50.4 µM (inactive) |  | 14.9 µM (inactive) | 24.7 µM (inactive) |
| C=C(C)C1CC/C(C)=C/CC[C@]2(C)O[C@H]2CC/C(COC(C)=O)=C\[C@@H]1O (stereo partly specified) | > 50 µM (inactive) | > 50 µM (inactive) | 17.9 µM (inactive) | > 50 µM (inactive) | > 50 µM (inactive) | > 50 µM (inactive) | > 50 µM (inactive) | > 50 µM (inactive) | > 50 µM (inactive) | 22.7 µM (inactive) |  | 19.2 µM (inactive) | > 50 µM (inactive) | > 50 µM (inactive) | > 50 µM (inactive) | 30.7 µM (inactive) | > 50 µM (inactive) | 34.6 µM (inactive) | > 50 µM (inactive) |  |
| CCN(CC)CCCC(C)NC(=O)c1ccc2c(c1)C(=O)c1ccccc1C2=O (stereo unspecified) | 21.7 µM (inactive) | 25.9 µM (inactive) | 8.38 µM (inactive) |  | 18.1 µM (inactive) | 18.6 µM (inactive) | 14 µM (inactive) |  |  |  | 12.9 µM (inactive) | 18.9 µM (inactive) | 7.74 µM (inactive) | 19.7 µM (inactive) | 23.6 µM (inactive) | 21.4 µM (inactive) | 17.9 µM (inactive) | 20.7 µM (inactive) | 24.2 µM (inactive) |  |

Source: ChEMBL document CHEMBL1201862, “PubChem BioAssay data set” (2004)
